Measurements taken from patent publication US20240425529A1, “BORIC ACID DERIVATIVE” (SHOUYAO HOLDINGS (BEIJING) CO., LTD., priority 2021, published 2024).

Legend:
[1] = test system: multiple myeloma cells MM. 1S; test: In-vivo assay I: subcutaneous xenograft model of multiple myeloma cells MM. 1S in mice; conditions: MM. 1S xenograft, NOD/SCID mice; for animal death or weight loss caused by the compound: 2 mg/kg orally once daily for 14 days; for T/C / TGI (tumor growth inhibition rate): 2 mg/kg orally once daily, Day 14
Method: Evaluation assay of LMP7 inhibitors in a subcutaneous xenograft model of multiple myeloma cells MM. 1S in mice
Female NOD/SCID mice, week old: 5-6 weeks old, certificate No: SCXK(Jing) 2021-0006, purchased from Beijing Vital River Experimental Animal Technology Co. Ltd.
(§1) The specific method was that mice were housed in an SPF environment. Every 5 mice were housed in 1 cage. Animals were free to drink and eat and were adaptively raised for one week. Laboratory conditions: room temperature 18-24° C., relative humidity 40%-70%, ventilated with a ventilation fan, natural light source for 12 hours per day. Cages, bedding, drinking water, and feed were replaced twice a week, and the replaced cages and drinking water bottles were cleaned and then sterilized by steam under high pressure. Cages, room walls, and floors were cleaned twice a week with 84-disinfectant or bromogeramine.
MM. 1S (Cell Resource Center, Institute of Basic Medical Sciences, Chinese Academy of Medical Sciences) cells were cultured using RPMI-1640 medium supplemented with 20% fetal bovine serum and 1% Penicillin-Streptomycin at 37° C. in an atmosphere of 5% CO2 in air. Cells were routinely sub-cultured twice weekly, and cells grown in the exponential growth phase were harvested and counted. Cell suspensions were mixed well in 30% Matrigel™ (Corning Matrigel™ High Concentration Basement Membrane) for tumor cell inoculation.
Mice were pretreated with cyclophosphamide via intraperitoneal injection for 3 days, and each mouse was subcutaneously injected with 0.1 mL of PBS-suspended MM. 1S cell suspension (containing 1.0×10^7 cells, 30% Matrigel) at the axillary sites on both sides to establish a subcutaneous transplanted tumor model of multiple myeloma cells MM. 1S in mice. When the tumor size reached 400-700 mm^3, the tumor mass was collected aseptically and cryopreserved for future use. The MM. 1S tumor mass was revived, and the tumor mass was aseptically collected for 2 generations for an in-vivo efficacy evaluation assay. When the average tumor volume was about 100-150 mm^3, 20 tumor-bearing mice with a relatively regular shape and uniform size were selected for the experiment. They were divided into 4 groups, with 5 animals in each group. The first group of the model group was orally administered with the vehicle once daily; the second group was orally administered with Example 9 (2 mg/kg) once daily; the third group was orally administered with Example 67 (2 mg/kg) once daily; the fourth group was orally administered Example 73 (2 mg/kg) once daily. Administration was started on the day of grouping and continued for 14 days. Tumor diameter and body weight were measured 3 times per week during the experiment. At the end of the experiment, intraocular canthus blood was collected and mice were sacrificed immediately after blood collection to collect tumor tissue.
The study endpoints were tumor growth inhibition, maximum tumor burden (individual tumor size equal to 10% of body weight), and weight loss greater than 20% of body weight at the start of treatment. The tumor volume was calculated as V=0.5×a×b^2, where V is the tumor volume and a and b are the length and width of the tumor, respectively. The tumor growth inhibition rate was calculated as TGI (%)=(1-(tumor volume of treatment group-tumor volume of treatment group at grouping)/(tumor volume of control group-tumor volume of control group at grouping))*100%. Complete tumor regression (CR) is defined as a tumor that is reduced to below the palpation limit (mm^3). Partial tumor regression (PR) is defined as a tumor that is reduced by at least half compared to the initial tumor volume. The minimum duration of CR or PR in three or more consecutive tumor measurements is required to consider CR or PR as persistent. […]

[2] = test system: multiple myeloma cells U266B1; test: In-vivo assay II: subcutaneous xenograft model of multiple myeloma cells U266B1 in mice; conditions: NOG mice
Method: Evaluation assay of LMP7 Inhibitors in a subcutaneous xenograft model of multiple myeloma cells U266B1 in mice
Female NOG mice, week old: 6-8 weeks old, certificate No: SCXK(Jing) 2021-0006, purchased from Beijing Vital River Experimental Animal Technology Co. Ltd.
as §1
U266b1 (China Center for Type Culture Collection, College of Life Sciences at Wuhan University) cells were cultured using RPMI-1640 medium supplemented with 20% fetal bovine serum and 1% Penicillin-Streptomycin at 37° C. in an atmosphere of 5% CO2 in the air. Cells were routinely sub-cultured twice weekly, and cells grown in the exponential growth phase were harvested and counted. Cell suspensions were mixed well at 1:1 in Matrigel™ (Corning Matrigel™ Normal Basement Membrane) for tumor cell inoculation.
Each mouse was subcutaneously injected with 0.1 ml of PBS-suspended U266B1 cell suspension (containing 1.0×10^7 cells, 50% Matrigel) at the axillary sites on both sides to establish a subcutaneous transplanted tumor model of multiple myeloma cells U266B1 in mice. […] Tumor diameter and body weight were measured 3 times per week during the experiment. […]
The study endpoints were tumor growth inhibition, maximum tumor burden (individual tumor size equal to 10% of body weight), and weight loss greater than 20% of body weight at the start of treatment. The tumor volume was calculated as V=0.5×a×b^2, where V is the tumor volume and a and b are the length and width of the tumor, respectively. […]

[3] = 0.3 mg/kg orally once daily, Day 14

SMILES	animal death or weight loss caused by the compound [1]	T/C [1] [%]	TGI (tumor growth inhibition rate) [1] [%]	animal death or weight loss caused by the compound ([2]; 0.3 mg/kg orally once daily for 14 days)	T/C [2, 3] [%]	TGI (tumor growth inhibition rate) [2, 3] [%]
O=C(Nc1cnccn1)C(=O)N[C@@H](Cc1coc2ccccc12)B(O)O [Ex. 9, (R)-(2-(benzofuran-3-yl)-1-(2-oxo-2-(pyrazin-2-ylamino)acetamido)ethyl) boronic acid]	no animal death or weight loss	0.88	112.28	no animal death or weight loss	9.76	104.45
CC1CC(C)(C)OB([C@H](Cc2coc3ccccc23)NC(=O)C(=O)Nc2cnccn2)O1 (stereo partly drawn) [Ex. 67]	no animal death or weight loss	1.57	112.06			
O=C1COB([C@H](Cc2coc3ccccc23)NC(=O)C(=O)Nc2cnccn2)O1 [Ex. 73]	no animal death or weight loss	0.53	112.56			
